Assay results from patent US20150105252A1, “SUBSTITUTED PYRAZOLES AS HERBICIDES” (E I DU PONT DE NEMOURS AND COMPANY, priority 2013, published 2015).

Key:
[1] = system: wheat; test: Test C preemergence; format: in vivo, Triticum aestivum; details: preemergence; for Plant response rating, Wheat: 125 g ai/ha, scale 0 to 100, 0 = no effect, 100 = complete control
Summary of the method: (§1)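 Scores of 0 (no effect) to 100 (complete control) were assigned by eye after 13–15 days, comparing treated pots with controls. Soil-applied (preemergence) treatments went onto seeds in loam and sand; foliar (postemergence) treatments onto 1- to 4-leaf plants in peat medium.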

[2] = system: soybean; test: Test C preemergence; format: in vivo, Glycine max; details: preemergence; for Plant response rating, Soybean: 125 g ai/ha, scale 0 to 100, 0 = no effect, 100 = complete control
Summary of the method: as §1

[3] = system: blackgrass; test: Test C preemergence; format: in vivo, Alopecurus myosuroides; details: preemergence; for Plant response rating, Blackgrass: 125 g ai/ha, scale 0 to 100, 0 = no effect, 100 = complete control
Summary of the method: as §1

[4] = system: morningglory; test: Test A preemergence; format: in vivo, Ipomoea spp.; details: preemergence; for Morningglory plant response rating (0 to 100 scale): 125 g ai/ha, visual injury approx. 10 days after treatment; for Morningglory plant response rating: 500 g ai/ha, visual injury after approx. 10 days, 0 to 100 scale (0 no effect, 100 complete control)
Summary of the method: (§2)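 Injury readout: eye-scored versus untreated controls, 0 to 100. Exposure period: ~10 days, greenhouse. Application: soil-directed spray over sown seed (pre) or spray on seedlings 2–10 cm tall with one or two leaves (post), compound carried in non-phytotoxic solvent including surfactant.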

[5] = system: oilseed rape; test: Test C preemergence; format: in vivo, Brassica napus; details: preemergence; for Plant response rating, Oilseed Rape: 125 g ai/ha, scale 0 to 100, 0 = no effect, 100 = complete control
Summary of the method: as §1

[6] = system: pigweed; test: Test A preemergence; format: in vivo, Amaranthus retroflexus; details: preemergence; for Pigweed plant response rating (0 to 100 scale): 125 g ai/ha, visual injury approx. 10 days after treatment; for Pigweed plant response rating: 500 g ai/ha, visual injury after approx. 10 days, 0 to 100 scale (0 no effect, 100 complete control)
Summary of the method: as §2

[7] = system: ducksalad; test: Test B flood; format: in vivo, Heteranthera limosa; details: 250 g ai/ha, visual rating on 0 to 100 scale (0 no effect, 100 complete control), 13 to 15 days
Summary of the method: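 Each compound is applied to the floodwater of pots holding 2-leaf seedlings, water standing 3 cm over the soil throughout. Plants stay in a greenhouse 13 to 15 days before visual scoring against controls from 0 (no effect) to 100 (complete control).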

[8] = system: galium; test: Test C preemergence; format: in vivo, Galium aparine; details: preemergence; for Plant response rating, Galium: 125 g ai/ha, scale 0 to 100, 0 = no effect, 100 = complete control
Summary of the method: as §1

[9] = system: crabgrass, large; test: Test C preemergence; format: in vivo, Digitaria sanguinalis; details: preemergence; for Plant response rating, Crabgrass, Large: 125 g ai/ha, scale 0 to 100, 0 = no effect, 100 = complete control
Summary of the method: as §1

[10] = system: crabgrass, large; test: Test A postemergence; format: in vivo, Digitaria sanguinalis
Summary of the method: as §2

[11] = system: corn; test: Test A preemergence; format: in vivo, Zea mays; details: preemergence; for Corn plant response rating (0 to 100 scale): 125 g ai/ha, visual injury approx. 10 days after treatment; for Corn plant response rating: 500 g ai/ha, visual injury after approx. 10 days, 0 to 100 scale (0 no effect, 100 complete control)
Summary of the method: as §2

[12] = system: pigweed; test: Test A postemergence; format: in vivo, Amaranthus retroflexus
Summary of the method: as §2

[13] = system: barnyardgrass; test: Test A postemergence; format: in vivo, Echinochloa crus-galli
Summary of the method: as §2

[14] = system: johnsongrass; test: Test C preemergence; format: in vivo, Sorghum halepense; details: preemergence; for Plant response rating, Johnsongrass: 125 g ai/ha, scale 0 to 100, 0 = no effect, 100 = complete control
Summary of the method: as §1

[15] = 31 g ai/ha, visual rating, scale 0 to 100 (0 no effect, 100 complete control), 13 to 15 days
[16] = 62 g ai/ha, scale 0 to 100 (0 no effect, 100 complete control), 13 to 15 days
[17] = 250 g ai/ha, scale 0 to 100, 0 is no effect, 100 is complete control
[18] = Postemergence, 500 g ai/ha, 0 to 100 scale (0 no effect, 100 complete control)
[19] = postemergence, 125 g ai/ha, about 10 days, visual rating on 0 to 100 scale (0 no effect, 100 complete control)

CCCNC(=O)c1cc(CCCl)n(Cc2ccnc(C(F)(F)F)c2)n1 [Compound 145]
Wheat plant response rating [1, 15]: 5
Wheat plant response rating [1, 16]: 40
Plant response rating, Wheat ([1]; 13 to 15 days): 50
Wheat plant response rating [1, 17]: 90
Soybean plant response rating [2, 15]: 20
Soybean plant response rating [2, 16]: 70
Plant response rating, Soybean ([2]; 13 to 15 days): 85
Soybean plant response rating [2, 17]: 95
Blackgrass plant response rating [3, 15]: 70
Blackgrass plant response rating [3, 16]: 85
Plant response rating, Blackgrass ([3]; 13 to 15 days): 90
Blackgrass plant response rating [3, 17]: 90
Morningglory plant response rating (0 to 100 scale) [4]: 100
Morningglory plant response rating [4]: 100
Oilseed Rape plant response rating [5, 15]: 60
Oilseed Rape plant response rating [5, 16]: 98
Plant response rating, Oilseed Rape ([5]; 13 to 15 days): 100
Oilseed Rape plant response rating [5, 17]: 98
Pigweed plant response rating (0 to 100 scale) [6]: 100
Pigweed plant response rating [6]: 100
Plant response rating, Ducksalad [7]: 100
Galium plant response rating [8, 15]: 90
Galium plant response rating [8, 16]: 95
Plant response rating, Galium ([8]; 13 to 15 days): 95
Galium plant response rating [8, 17]: 100
Crabgrass, Large plant response rating [9, 15]: 100
Plant response rating, Crabgrass, Large ([9]; 13 to 15 days): 100
Crabgrass, Large plant response rating [9, 17]: 100
Crabgrass, Large plant response rating [10, 18]: 90
Crabgrass, Large plant response rating [10, 19]: 90
Corn plant response rating (0 to 100 scale) [11]: 30
Corn plant response rating [11]: 60
Pigweed plant response rating [12, 18]: 100
Pigweed plant response rating [12, 19]: 100
Barnyardgrass plant response rating [13, 18]: 90
Barnyardgrass plant response rating [13, 19]: 60
Johnsongrass plant response rating [14, 15]: 55
Plant response rating, Johnsongrass ([14]; 13 to 15 days): 98
Johnsongrass plant response rating [14, 17]: 98

CCNC(=O)c1cc(CCCl)n(Cc2ccnc(C(F)(F)F)c2)n1 [Compound 179]
Wheat plant response rating [1, 15]: 0
Wheat plant response rating [1, 16]: 0
Plant response rating, Wheat ([1]; 13 to 15 days): 80
Wheat plant response rating [1, 17]: 85
Soybean plant response rating [2, 15]: 35
Soybean plant response rating [2, 16]: 65
Plant response rating, Soybean ([2]; 13 to 15 days): 85
Soybean plant response rating [2, 17]: 98
Blackgrass plant response rating [3, 15]: 5
Blackgrass plant response rating [3, 16]: 40
Plant response rating, Blackgrass ([3]; 13 to 15 days): 90
Blackgrass plant response rating [3, 17]: 95
Morningglory plant response rating (0 to 100 scale) [4]: 80
Morningglory plant response rating [4]: 100
Oilseed Rape plant response rating [5, 15]: 60
Oilseed Rape plant response rating [5, 16]: 85
Plant response rating, Oilseed Rape ([5]; 13 to 15 days): 100
Oilseed Rape plant response rating [5, 17]: 100
Pigweed plant response rating (0 to 100 scale) [6]: 100
Pigweed plant response rating [6]: 100
Plant response rating, Ducksalad [7]: 100
Galium plant response rating [8, 15]: 98
Galium plant response rating [8, 16]: 100
Plant response rating, Galium ([8]; 13 to 15 days): 100
Galium plant response rating [8, 17]: 100
Crabgrass, Large plant response rating [9, 15]: 100
Crabgrass, Large plant response rating [9, 16]: 100
Plant response rating, Crabgrass, Large ([9]; 13 to 15 days): 100
Crabgrass, Large plant response rating [9, 17]: 100
Crabgrass, Large plant response rating [10, 18]: 90
Crabgrass, Large plant response rating [10, 19]: 90
Corn plant response rating (0 to 100 scale) [11]: 10
Corn plant response rating [11]: 50
Pigweed plant response rating [12, 18]: 100
Pigweed plant response rating [12, 19]: 100
Barnyardgrass plant response rating [13, 18]: 90
Barnyardgrass plant response rating [13, 19]: 70
Johnsongrass plant response rating [14, 15]: 10
Johnsongrass plant response rating [14, 16]: 10
Plant response rating, Johnsongrass ([14]; 13 to 15 days): 75
Johnsongrass plant response rating [14, 17]: 98

CCCc1cc(C(=O)NOCC)nn1Cc1ccnc(C(F)(F)F)c1 [Compound 185]
Wheat plant response rating [1, 15]: 0
Wheat plant response rating [1, 16]: 60
Plant response rating, Wheat ([1]; 13 to 15 days): 85
Wheat plant response rating [1, 17]: 90
Soybean plant response rating [2, 15]: 5
Soybean plant response rating [2, 16]: 5
Plant response rating, Soybean ([2]; 13 to 15 days): 25
Soybean plant response rating [2, 17]: 65
Blackgrass plant response rating [3, 15]: 5
Blackgrass plant response rating [3, 16]: 10
Plant response rating, Blackgrass ([3]; 13 to 15 days): 90
Blackgrass plant response rating [3, 17]: 80
Morningglory plant response rating (0 to 100 scale) [4]: 40
Morningglory plant response rating [4]: 90
Oilseed Rape plant response rating [5, 15]: 70
Oilseed Rape plant response rating [5, 16]: 80
Plant response rating, Oilseed Rape ([5]; 13 to 15 days): 85
Oilseed Rape plant response rating [5, 17]: 100
Pigweed plant response rating (0 to 100 scale) [6]: 0
Pigweed plant response rating [6]: 0
Plant response rating, Ducksalad [7]: 50
Galium plant response rating [8, 15]: 80
Galium plant response rating [8, 16]: 100
Plant response rating, Galium ([8]; 13 to 15 days): 95
Galium plant response rating [8, 17]: 100
Crabgrass, Large plant response rating [9, 15]: 80
Crabgrass, Large plant response rating [9, 16]: 100
Plant response rating, Crabgrass, Large ([9]; 13 to 15 days): 100
Crabgrass, Large plant response rating [9, 17]: 100
Crabgrass, Large plant response rating [10, 18]: 90
Crabgrass, Large plant response rating [10, 19]: 80
Corn plant response rating (0 to 100 scale) [11]: 10
Corn plant response rating [11]: 30
Pigweed plant response rating ([12]; Postemergence, 125 g ai/ha, 0 to 100 scale, 0 no effect, 100 complete control): 60
Pigweed plant response rating [12, 18]: 100
Barnyardgrass plant response rating [13, 18]: 90
Barnyardgrass plant response rating [13, 19]: 80
Johnsongrass plant response rating [14, 15]: 5
Johnsongrass plant response rating [14, 16]: 10
Plant response rating, Johnsongrass ([14]; 13 to 15 days): 20
Johnsongrass plant response rating [14, 17]: 60
